Assay results taken from patent publication US6534447B1, “Herbicidal pyridine compounds” (BASF Aktiengesellschaft, priority 1999, dated 2003).

Columns and labels:
Format in all cases: in vivo
[1] = test system: Abutilon theophrasti (ABUTH, velvetleaf); assay: Pre-emergence herbicidal evaluation; conditions: 3 weeks after treatment
From the text: (§1) The pre-emergence herbicidal activity of the compounds of the present invention is exemplified by the following test in which the seeds of a variety of monocotyledonous and dicotyledonous plants are seperately mixed with potting soil and planted on top of approximately one inch of soil in separate post. After planting, the pots are sprayed with the selected aqueous acetone solution. containing test compound in sufficient quantity to provide the equivalent of about 0.025 to 0.4 kg per hectare of test compound per pot. The treated pots are then placed on greenhouse benches, watered and cared for in accordance with conventional greenhouse procedures. From 3 weeks after treatment, the tests are terminated and each pot is examined and rated according to the rating system set forth below. [table] [table]

[2] = test system: Alopecurus myosuroides (ALOMY, black grass); assay: Pre-emergence herbicidal evaluation; conditions: 3 weeks after treatment
From the text: as §1

[3] = test system: Echinochloa grus galli (ECHCG, barnyard grass); assay: Pre-emergence herbicidal evaluation; conditions: 3 weeks after treatment
From the text: as §1

[4] = test system: Galium aparine (GALAP, cleaver); assay: Pre-emergence herbicidal evaluation; conditions: 3 weeks after treatment
From the text: as §1

[5] = test system: Ipomoea hederacea (IPOHE, morning glory); assay: Pre-emergence herbicidal evaluation; conditions: 3 weeks after treatment
From the text: as §1

[6] = test system: Matricaria inodora (MATIN, mayweed); assay: Pre-emergence herbicidal evaluation; conditions: 3 weeks after treatment
From the text: as §1

[7] = test system: Setaria viridis (SETVI, green foxtail); assay: Pre-emergence herbicidal evaluation; conditions: 3 weeks after treatment
From the text: as §1

[8] = test system: Stellaria media (STEME, chickweed); assay: Pre-emergence herbicidal evaluation; conditions: 3 weeks after treatment
From the text: as §1

[9] = test system: Glycine max (GLXMA, soyabeans); assay: Pre-emergence herbicidal evaluation (crop); conditions: 3 weeks after treatment
From the text: as §1

[10] = test system: Triticum aestivum (TRZAW, winter wheat); assay: Pre-emergence herbicidal evaluation (crop); conditions: 3 weeks after treatment
From the text: as §1

Zea mays (ZEAMX, maize) = assay: Pre-emergence herbicidal evaluation (crop); conditions: 3 weeks after treatment
From the text: as §1

[11] = test system: Abutilon theophrasti (ABUTH, velvetleaf); assay: Post-emergence herbicidal evaluation; conditions: 3 weeks after treatment
Description: (§2) These acetone solutions are diluted with water and the resulting formulations applied at dosage levels equivalent of about 0.025 to 0.4 kg per hectare of test compound per pot. After spraying the plants are placed on greenhouse benches and are cared for in the usual manner, commensurate with conventional greenhouse practices. From 3 weeks after treatment, the seedling plants are examined and rated according to the rating system provided above. A rating 0 indicates growth as untreated control, a rating 9 indicates death.

[12] = test system: Alopecurus myosuroides (ALOMY, black grass); assay: Post-emergence herbicidal evaluation; conditions: 3 weeks after treatment
Description: as §2

[13] = test system: Dolium multiflorum (LOLMU, ryegrass); assay: Post-emergence herbicidal evaluation; conditions: rate 0.100 kg/ha, 3 weeks after treatment
Description: as §2

[14] = test system: Echinochloa grus galli (ECHCG, barnyard grass); assay: Post-emergence herbicidal evaluation; conditions: 3 weeks after treatment
Description: as §2

[15] = test system: Galium aparine (GALAP, cleaver); assay: Post-emergence herbicidal evaluation; conditions: 3 weeks after treatment
Description: as §2

[16] = test system: Ipomoea hederacea (IPOHE, morning glory); assay: Post-emergence herbicidal evaluation; conditions: 3 weeks after treatment
Description: as §2

[17] = test system: Matricaria inodora (MATIN, mayweed); assay: Post-emergence herbicidal evaluation; conditions: 3 weeks after treatment
Description: as §2

[18] = test system: Setaria viridis (SETVI, green foxtail); assay: Post-emergence herbicidal evaluation; conditions: 3 weeks after treatment
Description: as §2

[19] = test system: Stellaria media (STEME, chickweed); assay: Post-emergence herbicidal evaluation; conditions: 3 weeks after treatment
Description: as §2

Cc1cc(OCC=CSC(F)(F)F)nc(Oc2cc(C(F)(F)F)nn2C)c1 [Example 2, 2-(1-Methyl-3-trifluoromethylpyrazol-5-yloxy)-4-methyl-6-(3-trifluoromethylthioprop-2-enyloxy)pyridine]
ABUTH rating ([1]; rate 0.025 kg/ha): 3 (3 - Moderate effect)
ABUTH rating ([1]; rate 0.100 kg/ha): 7 (7 - Good herbicidal effect)
ABUTH rating ([1]; rate 0.400 kg/ha): 8 (8 - Approaching complete kill)
ALOMY rating ([2]; rate 0.025 kg/ha): 8 (8 - Approaching complete kill)
ALOMY rating ([2]; rate 0.100 kg/ha): 8 (8 - Approaching complete kill)
ALOMY rating ([2]; rate 0.400 kg/ha): 8 (8 - Approaching complete kill)
ECHCG rating ([3]; rate 0.025 kg/ha): 7 (7 - Good herbicidal effect)
ECHCG rating ([3]; rate 0.100 kg/ha): 8 (8 - Approaching complete kill)
ECHCG rating ([3]; rate 0.400 kg/ha): 8 (8 - Approaching complete kill)
GALAP rating ([4]; rate 0.025 kg/ha): 7 (7 - Good herbicidal effect)
GALAP rating ([4]; rate 0.400 kg/ha): 8 (8 - Approaching complete kill)
IPOHE rating ([5]; rate 0.025 kg/ha): 5 (5 - Definite injury)
IPOHE rating ([5]; rate 0.100 kg/ha): 5 (5 - Definite injury)
IPOHE rating ([5]; rate 0.400 kg/ha): 8 (8 - Approaching complete kill)
MATIN rating ([6]; rate 0.025 kg/ha): 8 (8 - Approaching complete kill)
MATIN rating ([6]; rate 0.100 kg/ha): 8 (8 - Approaching complete kill)
MATIN rating ([6]; rate 0.400 kg/ha): 9 (9 - Complete kill)
SETVI rating ([7]; rate 0.025 kg/ha): 9 (9 - Complete kill)
SETVI rating ([7]; rate 0.100 kg/ha): 9 (9 - Complete kill)
SETVI rating ([7]; rate 0.400 kg/ha): 9 (9 - Complete kill)
STEME rating ([8]; rate 0.025 kg/ha): 9 (9 - Complete kill)
STEME rating ([8]; rate 0.100 kg/ha): 9 (9 - Complete kill)
STEME rating ([8]; rate 0.400 kg/ha): 9 (9 - Complete kill)
GLXMA rating ([9]; rate 0.025 kg/ha): 0 (0 - No effect)
GLXMA rating ([9]; rate 0.100 kg/ha): 2 (2 - Slight effect)
GLXMA rating ([9]; rate 0.400 kg/ha): 4 (4 - Injury)
TRZAW rating ([10]; rate 0.025 kg/ha): 2 (2 - Slight effect)
TRZAW rating ([10]; rate 0.100 kg/ha): 3 (3 - Moderate effect)
TRZAW rating ([10]; rate 0.400 kg/ha): 5 (5 - Definite injury)
ZEAMX rating (Zea mays (ZEAMX, maize); rate 0.025 kg/ha): 4 (4 - Injury)
ZEAMX rating (Zea mays (ZEAMX, maize); rate 0.100 kg/ha): 5 (5 - Definite injury)
ZEAMX rating (Zea mays (ZEAMX, maize); rate 0.400 kg/ha): 5 (5 - Definite injury)
ABUTH rating ([11]; rate 0.025 kg/ha): 6 (6 - Herbicidal effect)
ABUTH rating ([11]; rate 0.100 kg/ha): 7 (7 - Good herbicidal effect)
ABUTH rating ([11]; rate 0.400 kg/ha): 7 (7 - Good herbicidal effect)
ALOMY rating ([12]; rate 0.025 kg/ha): 7 (7 - Good herbicidal effect)
ALOMY rating ([12]; rate 0.100 kg/ha): 7 (7 - Good herbicidal effect)
ALOMY rating ([12]; rate 0.400 kg/ha): 7 (7 - Good herbicidal effect)
LOLMU rating [13]: 8 (8 - Approaching complete kill)
ECHCG rating ([14]; rate 0.025 kg/ha): 8 (8 - Approaching complete kill)
ECHCG rating ([14]; rate 0.100 kg/ha): 8 (8 - Approaching complete kill)
ECHCG rating ([14]; rate 0.400 kg/ha): 8 (8 - Approaching complete kill)
GALAP rating ([15]; rate 0.025 kg/ha): 6 (6 - Herbicidal effect)
GALAP rating ([15]; rate 0.100 kg/ha): 7 (7 - Good herbicidal effect)
GALAP rating ([15]; rate 0.400 kg/ha): 7 (7 - Good herbicidal effect)
IPOHE rating ([16]; rate 0.025 kg/ha): 8 (8 - Approaching complete kill)
IPOHE rating ([16]; rate 0.100 kg/ha): 9 (9 - Complete kill)
IPOHE rating ([16]; rate 0.400 kg/ha): 9 (9 - Complete kill)
MATIN rating ([17]; rate 0.025 kg/ha): 6 (6 - Herbicidal effect)
MATIN rating ([17]; rate 0.100 kg/ha): 6 (6 - Herbicidal effect)
MATIN rating ([17]; rate 0.400 kg/ha): 6 (6 - Herbicidal effect)
SETVI rating ([18]; rate 0.025 kg/ha): 7 (7 - Good herbicidal effect)
SETVI rating ([18]; rate 0.100 kg/ha): 8 (8 - Approaching complete kill)
SETVI rating ([18]; rate 0.400 kg/ha): 8 (8 - Approaching complete kill)
STEME rating ([19]; rate 0.025 kg/ha): 4 (4 - Injury)
STEME rating ([19]; rate 0.100 kg/ha): 5 (5 - Definite injury)
STEME rating ([19]; rate 0.400 kg/ha): 5 (5 - Definite injury)

Cc1cc(OCCSC(F)(F)F)nc(Oc2ccnc(C(F)(F)F)c2)c1 [Example 51]
ABUTH rating ([1]; rate 0.025 kg/ha): 9 (9 - Complete kill)
ABUTH rating ([1]; rate 0.100 kg/ha): 9 (9 - Complete kill)
ABUTH rating ([1]; rate 0.400 kg/ha): 9 (9 - Complete kill)
ALOMY rating ([2]; rate 0.025 kg/ha): 8 (8 - Approaching complete kill)
ALOMY rating ([2]; rate 0.100 kg/ha): 8 (8 - Approaching complete kill)
ALOMY rating ([2]; rate 0.400 kg/ha): 8 (8 - Approaching complete kill)
ECHCG rating ([3]; rate 0.025 kg/ha): 7 (7 - Good herbicidal effect)
ECHCG rating ([3]; rate 0.100 kg/ha): 9 (9 - Complete kill)
ECHCG rating ([3]; rate 0.400 kg/ha): 9 (9 - Complete kill)
GALAP rating ([4]; rate 0.025 kg/ha): 8 (8 - Approaching complete kill)
GALAP rating ([4]; rate 0.100 kg/ha): 8 (8 - Approaching complete kill)
GALAP rating ([4]; rate 0.400 kg/ha): 8 (8 - Approaching complete kill)
IPOHE rating ([5]; rate 0.025 kg/ha): 9 (9 - Complete kill)
IPOHE rating ([5]; rate 0.100 kg/ha): 9 (9 - Complete kill)
IPOHE rating ([5]; rate 0.400 kg/ha): 9 (9 - Complete kill)
MATIN rating ([6]; rate 0.025 kg/ha): 8 (8 - Approaching complete kill)
MATIN rating ([6]; rate 0.100 kg/ha): 9 (9 - Complete kill)
MATIN rating ([6]; rate 0.400 kg/ha): 9 (9 - Complete kill)
SETVI rating ([7]; rate 0.025 kg/ha): 8 (8 - Approaching complete kill)
SETVI rating ([7]; rate 0.100 kg/ha): 8 (8 - Approaching complete kill)
SETVI rating ([7]; rate 0.400 kg/ha): 9 (9 - Complete kill)
STEME rating ([8]; rate 0.025 kg/ha): 9 (9 - Complete kill)
STEME rating ([8]; rate 0.100 kg/ha): 9 (9 - Complete kill)
STEME rating ([8]; rate 0.400 kg/ha): 9 (9 - Complete kill)
GLXMA rating ([9]; rate 0.025 kg/ha): 4 (4 - Injury)
GLXMA rating ([9]; rate 0.100 kg/ha): 5 (5 - Definite injury)
GLXMA rating ([9]; rate 0.400 kg/ha): 6 (6 - Herbicidal effect)
TRZAW rating ([10]; rate 0.025 kg/ha): 2 (2 - Slight effect)
TRZAW rating ([10]; rate 0.100 kg/ha): 4 (4 - Injury)
TRZAW rating ([10]; rate 0.400 kg/ha): 6 (6 - Herbicidal effect)
ZEAMX rating (Zea mays (ZEAMX, maize); rate 0.025 kg/ha): 3 (3 - Moderate effect)
ZEAMX rating (Zea mays (ZEAMX, maize); rate 0.100 kg/ha): 4 (4 - Injury)
ZEAMX rating (Zea mays (ZEAMX, maize); rate 0.400 kg/ha): 5 (5 - Definite injury)
ABUTH rating ([11]; rate 0.025 kg/ha): 7 (7 - Good herbicidal effect)
ABUTH rating ([11]; rate 0.100 kg/ha): 8 (8 - Approaching complete kill)
ABUTH rating ([11]; rate 0.400 kg/ha): 8 (8 - Approaching complete kill)
ALOMY rating ([12]; rate 0.025 kg/ha): 4 (4 - Injury)
ALOMY rating ([12]; rate 0.100 kg/ha): 7 (7 - Good herbicidal effect)
ALOMY rating ([12]; rate 0.400 kg/ha): 8 (8 - Approaching complete kill)
LOLMU rating [13]: 8 (8 - Approaching complete kill)
ECHCG rating ([14]; rate 0.025 kg/ha): 9 (9 - Complete kill)
ECHCG rating ([14]; rate 0.100 kg/ha): 9 (9 - Complete kill)
ECHCG rating ([14]; rate 0.400 kg/ha): 9 (9 - Complete kill)
GALAP rating ([15]; rate 0.025 kg/ha): 6 (6 - Herbicidal effect)
GALAP rating ([15]; rate 0.100 kg/ha): 9 (9 - Complete kill)
GALAP rating ([15]; rate 0.400 kg/ha): 9 (9 - Complete kill)
IPOHE rating ([16]; rate 0.025 kg/ha): 9 (9 - Complete kill)
IPOHE rating ([16]; rate 0.100 kg/ha): 9 (9 - Complete kill)
IPOHE rating ([16]; rate 0.400 kg/ha): 9 (9 - Complete kill)
MATIN rating ([17]; rate 0.025 kg/ha): 4 (4 - Injury)
MATIN rating ([17]; rate 0.100 kg/ha): 6 (6 - Herbicidal effect)
MATIN rating ([17]; rate 0.400 kg/ha): 8 (8 - Approaching complete kill)
SETVI rating ([18]; rate 0.025 kg/ha): 8 (8 - Approaching complete kill)
SETVI rating ([18]; rate 0.100 kg/ha): 9 (9 - Complete kill)
SETVI rating ([18]; rate 0.400 kg/ha): 9 (9 - Complete kill)
STEME rating ([19]; rate 0.025 kg/ha): 8 (8 - Approaching complete kill)
STEME rating ([19]; rate 0.100 kg/ha): 9 (9 - Complete kill)
STEME rating ([19]; rate 0.400 kg/ha): 9 (9 - Complete kill)
